Results reported in patent US10703733B2, “MCL-1 inhibitors” (Gilead Sciences, Inc., priority 2018, dated 2020).
Where two headings read alike, the source gives them in different places.

Tests used:
[1] = target: MCL-1/Bim interaction (recombinant human MCL-1 protein, residues 171-327; biotinylated human Bim peptide, residues 51-76) (Homo sapiens (Human), UniProt Q07820); assay: MCL-1/Bim Binding AlphaLISA Assay; conditions: 0.0625 nM 6xHis-Mcl-1 (171-327), 0.0625 nM biotinylated-Bim peptide
Outline: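 Compounds first sat 1 h with MCL-1 (171-327, 0.0625 nM), followed by 2 h with biotin-Bim 51-76 (0.0625 nM), then sequential 1 h anti-His acceptor and streptavidin donor bead steps; buffer Hepes pH 7.5 with NaCl, Brij 35, DTT, BSA. AlphaScreen signal converted to % inhibition using DMSO (negative) and protein/peptide-free (positive) controls.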

SKBR3 cells = assay: SKBR3 Cell Viability Assay (CellTiter Glo); format: cell-based; conditions: CellTiter Glo luminescence, read-out: MCL-1 CV SKBR3 EC50
Outline: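 Viability read as CellTiter Glo luminescence after 72 h of compound exposure at 37° C./5% CO2, using 6,000 SKBR3 cells per well in McCoy 5A with 10% FBS. Percent inhibition scaled between DMSO wells and 10 μM puromycin wells.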

Sequence of MCL-1/Bim interaction (recombinant human MCL-1 protein, residues 171-327; biotinylated human Bim peptide, residues 51-76) (Q07820 171-327): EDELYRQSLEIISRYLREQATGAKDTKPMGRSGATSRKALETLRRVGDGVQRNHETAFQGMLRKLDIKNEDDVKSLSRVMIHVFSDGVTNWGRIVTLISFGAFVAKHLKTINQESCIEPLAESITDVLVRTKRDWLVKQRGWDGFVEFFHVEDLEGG

Row | Compound | IC50 [1] | EC50 (SKBR3 cells; Homo sapiens, SK-BR-3, 72 h) | EC50 (SKBR3 cells; 72 hours)
1 | CO[C@H]1/C=C/C[C@H](C)C[S@@](=O)(NC(=O)[C@@H](O)Cc2ccccc2)=NC(=O)c2ccc3c(c2)N(C[C@@H]2CC[C@H]21)C[C@@]1(CCCc2cc(Cl)ccc21)CO3 [Example 121] | 0.163 nM | 71.5 nM | 
2 | CO[C@H]1/C=C/C[C@H](C)C[S@@](=O)(NC(=O)c2cn(C)nc2OCC2OCCO2)=NC(=O)c2ccc3c(c2)N(C[C@@H]2CC[C@H]21)C[C@@]1(CCCc2cc(Cl)ccc21)CO3 [Example 356] | 0.081 nM | 233 nM | 
3 | COc1nn(C)cc1C(=O)NS1(=O)=NC(=O)c2ccc3c(c2)N(C[C@@H]2CC[C@H]2[C@@H](OC)/C=C/[C@H](OC(=O)CCc2ccccc2)[C@H](C)C1)C[C@@]1(CCCc2cc(Cl)ccc21)CO3 (single isomer, unassigned) [Example 378] | 1.15 nM |  | 1180 nM
4 | COc1ncc(C(=O)N[S@@]2(=O)=NC(=O)c3ccc4c(c3)N(C[C@@H]3CC[C@H]3[C@@H](OC)/C=C/C[C@H](C)C2)C[C@@]2(CCCc3cc(Cl)ccc32)CO4)cn1 [Example 273] | 0.077 nM | 81 nM | 
5 | CO[C@H]1/C=C/C[C@H](C)C[S@@](=O)(NC(=O)c2cn(C)nc2OCCN2CCOCC2)=NC(=O)c2ccc3c(c2)N(C[C@@H]2CC[C@H]21)C[C@@]1(CCCc2cc(Cl)ccc21)CO3 [Example 319] | 0.038 nM | 19.9 nM | 
6 | CCN(C)C(=O)N[S@@]1(=O)=NC(=O)c2ccc3c(c2)N(C[C@@H]2CC[C@H]2[C@@H](OC)/C=C/CCC1)C[C@@]1(CCCc2cc(Cl)ccc21)CO3 [Example 77] | 5.3 nM | 6040 nM | 
7 | CO[C@H]1/C=C/C[C@H](C)C[S@@](=O)(NC(=O)N[C@@H]2C[C@H]2c2ccnn2C)=NC(=O)c2ccc3c(c2)N(C[C@@H]2CC[C@H]21)C[C@@]1(CCCc2cc(Cl)ccc21)CO3 [Example 182] | 0.144 nM | 136 nM | 
8 | CO[C@H]1/C=C/C[C@H](C)C[S@@](=O)(NC(=O)c2ccc3ncnn3c2)=NC(=O)c2ccc3c(c2)N(C[C@@H]2CC[C@H]21)C[C@@]1(CCCc2cc(Cl)ccc21)CO3 [Example 432] | 0.07 nM | 172 nM | 
9 | CO[C@H]1/C=C/C[C@H](C)C[S@@](=O)(NC(=O)NC2CCOCC2)=NC(=O)c2ccc3c(c2)N(C[C@@H]2CC[C@H]21)C[C@@]1(CCCc2cc(Cl)ccc21)CO3 [Example 442] | 0.134 nM | 122 nM | 
10 | CO[C@H]1/C=C/C[C@H](C)C[S@@](=O)(NC(=O)c2cc(C)cs2)=NC(=O)c2ccc3c(c2)N(C[C@@H]2CC[C@H]21)C[C@@]1(CCCc2cc(Cl)ccc21)CO3 [Example 434] | 0.446 nM | 403 nM | 
11 | COC[C@H]1Cn2cc(C(=O)N[S@@]3(=O)=NC(=O)c4ccc5c(c4)N(C[C@@H]4CC[C@H]4[C@@H](O)/C=C/C[C@H](C)C3)C[C@@]3(CCCc4cc(Cl)ccc43)CO5)cc2CO1 [Example 325] | 0.1 nM | 50.3 nM | 
12 | CC[C@@H]1CC/C=C/[C@H](OC)[C@@H]2CC[C@H]2CN2C[C@@]3(CCCc4cc(Cl)ccc43)COc3ccc(cc32)C(=O)N=[S@@]1(=O)NC(=O)CCc1ccnn1C [Example 70] | 0.2 nM |  | 374 nM
13 | CO[C@H]1/C=C/C[C@H](C)C[S@@](=O)(NC(=O)N[C@H]2C[C@@H]2C(F)F)=NC(=O)c2ccc3c(c2)N(C[C@@H]2CC[C@H]21)C[C@@]1(CCCc2cc(Cl)ccc21)CO3 [Example 311] | 0.024 nM | 13.4 nM | 
14 | CO[C@H]1/C=C/CCC[S@@](=O)(NC(=O)Cc2cnccn2)=NC(=O)c2ccc3c(c2)N(C[C@@H]2CC[C@H]21)C[C@@]1(CCCc2cc(Cl)ccc21)CO3 [Example 20] | 0.5 nM | 2060 nM | 
15 | CO[C@H]1/C=C/CCC[S@@](=O)(NC(=O)CCc2cnoc2)=NC(=O)c2ccc3c(c2)N(C[C@@H]2CC[C@H]21)C[C@@]1(CCCc2cc(Cl)ccc21)CO3 [Example 57] | 0.2 nM | 596 nM | 
16 | CO[C@H]1/C=C/C[C@H](C)C[S@@](=O)(NC(=O)c2cc(CN3CCN4CCOC[C@@H]4C3)n(C)c2)=NC(=O)c2ccc3c(c2)N(C[C@@H]2CC[C@H]21)C[C@@]1(CCCc2cc(Cl)ccc21)CO3 [Example 238] | 0.033 nM | 23.4 nM | 
17 | COc1nn(C)cc1C(=O)N[S@@]1(=O)=NC(=O)c2ccc3c(c2)N(C[C@@H]2CC[C@H]2[C@@H](OC)/C=C/[C@H](OC(C)=O)[C@H](C)C1)C[C@@]1(CCCc2cc(Cl)ccc21)CO3 [Example 393] | 0.062 nM | 33.4 nM | 
18 | CC[C@@H]1CC1NC(=O)N[S@@]1(=O)=NC(=O)c2ccc3c(c2)N(C[C@@H]2CC[C@H]2[C@@H](OC)/C=C/C[C@H](C)C1)C[C@@]1(CCCc2cc(Cl)ccc21)CO3 (some centres unmarked) [Example 199] | 0.117 nM | 58.2 nM | 
19 | CO[C@H]1/C=C/C[C@H](C)C[S@@](=O)(NC(=O)N[C@H]2C[C@@](C)(CO)C2)=NC(=O)c2ccc3c(c2)N(C[C@@H]2CC[C@H]21)C[C@@]1(CCCc2cc(Cl)ccc21)CO3 [Example 314] | 0.054 nM | 32.9 nM | 
20 | CO[C@H]1/C=C/CCC[S@@](=O)(NC(=O)C[C@H](O)c2ccccc2)=NC(=O)c2ccc3c(c2)N(C[C@@H]2CC[C@H]21)C[C@@]1(CCCc2cc(Cl)ccc21)CO3 [Example 72] | 0.1 nM | 262 nM | 
21 | COC1CCN(c2nn(C)cc2C(=O)N[S@@]2(=O)=NC(=O)c3ccc4c(c3)N(C[C@@H]3CC[C@H]3[C@@H](OC)/C=C/C[C@H](C)C2)C[C@@]2(CCCc3cc(Cl)ccc32)CO4)CC1 [Example 380] | 4.54 nM | 3400 nM | 
22 | CO[C@H]1/C=C/C[C@H](C)C[S@@](=O)(NC(=O)NC2C[C@H]2C(F)F)=NC(=O)c2ccc3c(c2)N(C[C@@H]2CC[C@H]21)C[C@@]1(CCCc2cc(Cl)ccc21)CO3 (some centres unmarked) [Example 207] | 0.162 nM | 44 nM | 
23 | CO[C@H]1/C=C/C[C@H](C)C[S@@](=O)(NC(=O)Nc2ncccn2)=NC(=O)c2ccc3c(c2)N(C[C@@H]2CC[C@H]21)C[C@@]1(CCCc2cc(Cl)ccc21)CO3 [Example 111] | 0.093 nM | 721 nM | 
24 | COc1c(C(=O)N[S@@]2(=O)=NC(=O)c3ccc4c(c3)N(C[C@@H]3CC[C@H]3[C@@H](OC)/C=C/C[C@H](C)C2)C[C@@]2(CCCc3cc(Cl)ccc32)CO4)cn2c1C[C@H](OC)C2 [Example 451] | 0.52 nM | 161 nM | 
25 | COc1nn(C)cc1C(=O)N[S@@]1(=O)=NC(=O)c2ccc3c(c2)N(C[C@@H]2CC[C@H]2[C@@H](O)CCC[C@H](C)[C@H]1C)C[C@@]1(CCCc2cc(Cl)ccc21)CO3 [Example 290] | 0.03 nM | 26.4 nM | 

The remaining lines, values ahead:

Row | IC50 [1] | EC50 (SKBR3 cells; Homo sapiens, SK-BR-3, 72 h) | EC50 (SKBR3 cells; 72 hours) | Compound
26 | 0.069 nM | 69.9 nM |  | COc1nn(C)cc1C(=O)N[S@@]1(=O)=NC(=O)c2ccc3c(c2)N(C[C@@H]2CC[C@H]2[C@@H](OC)/C=C\C[C@H](C)C1)C[C@@]1(CCCc2cc(Cl)ccc21)CO3 [Example 228]
27 | 0.074 nM | 84 nM |  | CCC1CN(C(=O)N[S@@]2(=O)=NC(=O)c3ccc4c(c3)N(C[C@@H]3CC[C@H]3[C@@H](OC)/C=C/C[C@H](C)C2)C[C@@]2(CCCc3cc(Cl)ccc32)CO4)C1 [Example 242]
28 | 0.117 nM | 195 nM |  | CO[C@H]1/C=C/C[C@H](C)C[S@@](=O)(NC(=O)N2CCC(C(F)F)CC2)=NC(=O)c2ccc3c(c2)N(C[C@@H]2CC[C@H]21)C[C@@]1(CCCc2cc(Cl)ccc21)CO3 [Example 258]
29 | 0.043 nM | 82.7 nM |  | COc1nn(C(F)F)cc1C(=O)N[S@@]1(=O)=NC(=O)c2ccc3c(c2)N(C[C@@H]2CC[C@H]2[C@@H](OC)/C=C/C[C@H](C)C1)C[C@@]1(CCCc2cc(Cl)ccc21)CO3 [Example 252]
30 | 0.113 nM | 206 nM |  | CO[C@H]1/C=C/C[C@H](C)C[S@@](=O)(NC(=O)N[C@H]2C[C@H](F)C2)=NC(=O)c2ccc3c(c2)N(C[C@@H]2CC[C@H]21)C[C@@]1(CCCc2cc(Cl)ccc21)CO3 [Example 357]
31 | 0.096 nM | 176 nM |  | CO[C@H]1/C=C/C[C@H](C)C[S@@](=O)(NC(=O)N2CC(OC)(C(F)(F)F)C2)=NC(=O)c2ccc3c(c2)N(C[C@@H]2CC[C@H]21)C[C@@]1(CCCc2cc(Cl)ccc21)CO3 [Example 246]
32 | 0.022 nM | 125 nM |  | CO[C@H]1/C=C/C[C@H](C)C[S@@](=O)(NC(=O)N[C@H]2C[C@](C)(O)C2)=NC(=O)c2ccc3c(c2)N(C[C@@H]2CC[C@H]21)C[C@@]1(CCCc2cc(Cl)ccc21)CO3 [Example 172]
33 | 0.043 nM | 82.6 nM |  | COCC1(OC)CN(C(=O)N[S@@]2(=O)=NC(=O)c3ccc4c(c3)N(C[C@@H]3CC[C@H]3[C@@H](OC)/C=C/C[C@H](C)C2)C[C@@]2(CCCc3cc(Cl)ccc32)CO4)C1 [Example 274]
34 | 0.083 nM | 89.7 nM |  | COC1CC2(C1)CN(C(=O)N[S@@]1(=O)=NC(=O)c3ccc4c(c3)N(C[C@@H]3CC[C@H]3[C@@H](OC)/C=C/C[C@H](C)C1)C[C@@]1(CCCc3cc(Cl)ccc31)CO4)C2 [Example 257]
35 | 0.18 nM | 136 nM |  | CO[C@H]1/C=C/C[C@H](C)C[S@@](=O)(NC(=O)N[C@@H]2C[C@@H]2C)=NC(=O)c2ccc3c(c2)N(C[C@@H]2CC[C@H]21)C[C@@]1(CCCc2cc(Cl)ccc21)CO3 [Example 162]
36 | 0.072 nM | 59.6 nM |  | CCn1cc(C(=O)N[S@@]2(=O)=NC(=O)c3ccc4c(c3)N(C[C@@H]3CC[C@H]3[C@@H](OC)/C=C/C[C@H](C)C2)C[C@@]2(CCCc3cc(Cl)ccc32)CO4)cn1 [Example 134]
37 | 0.071 nM | 39.3 nM |  | CO[C@H]1/C=C/C[C@H](C)C[S@@](=O)(NC(=O)N[C@H]2C[C@H](OC)C2)=NC(=O)c2ccc3c(c2)N(C[C@@H]2CC[C@H]21)C[C@@]1(CCCc2cc(Cl)ccc21)CO3 [Example 150]
